Legend:
[1] = system: 24OHase mRNA in OVCAR-3 cells; test: Quantitative RT-PCR of 24OHase mRNA; format: cell-based, human; conditions: 100 nM
Method: Ethanol was used as a vehicle, and it was also added to the control cells. For RNA extraction, the cells were collected 4, 6 and 24 hr after the treatment with vitamin D compound or vehicle. RNA extractions were done with TRIZOL reagent (GIBCO Invitrogen Corporation, Paisley, UK). The integrity of RNA samples was confirmed on gel electrophoresis. […] The reactions for 24-hydroxylase were performed in the LightCycler instrument (Roche Diagnostics, Basel, Switzerland) from 300 ng total RNA. PBGD (human porphobilinogendeaminase) mRNA was used as an […] control. […] Nucleotides, Tth DNA polymerase (DNA polymerase and reverse transcriptase activity), SYBR Green I and reaction buffer were included in the LightCycler-RNA Master SYBR Green I kit (Roche Diagnostics). […] Cell. […] Detection of fluorescent product was performed at the end of the extension step of each cycle. To verify the specific products, melting curve analysis and gel electrophoresis were done. The data were quantified by the Fit Points method with LightCycler Data Analysis software. […] Hormone treatments and RT-PCR were done twice.

[2] = system: ovarian cancer cell lines; test: Cell growth assay, crystal violet, 11 days, all cell lines; format: cell-based, human; conditions: 200 nM VID 400 alone
Method: The human ovarian adenocarcinoma cell line, OVCAR-3 (ATCC, Manassas, Va.) was maintained, as recommended by the supplier, in RPMI 1640 medium (Sigma Aldrich, St. Louis, Mo.) supplemented with 10% FBS, 10 μg/ml insulin, 0.25% glucose and antibiotics (100 IU/ml penicillin, 100 μg/ml streptomycin). Human ovarian adenocarcinoma cell lines UT-OC-1, UT-OC-2, UT-OC-3, UT-OC-4, UT-OC-5 (Grenman, S., Engblom, P., Rantanen, V., Klemi, P. and Isola, J., “Cytogenetic Characterization of Five New Ovarian Carcinoma Cell Lines,” Acta Obstet. Gynecol. Scand., 76:83 (1997)) and SK-OV-3 and a human keratinocyte cell line HaCaT were grown in DMEM (Sigma Aldrich) with 10% FBS and antibiotics (100 IU/ml penicillin, 100 μg/ml streptomycin), and monkey kidney COS cells were maintained in DMEM/F12 (Sigma Aldrich) with 5% FBS. […]
Relative cell numbers were quantified as described previously (Kueng W, Silber E, Eppenberger U. Quantification of cells cultured on 96-well plates. Anal. Biochem., 182:16-9 (1989)). […] Relative cell number was given as absorbance units by measuring the optical density (590 nm) from each well using Victor 1420 multilabel counter (Wallac, Turku, Finland). […] The absorbance value of day 0 (an overnight culture of 2,000 cells/well) was set as 0 by subtracting it from each value obtained from adjacent time-point measurements (days 1-11), and based on these values growth curves were created. […]

24-hydroxylase = target: T1, 24-hydroxylase (Homo sapiens, UniProt Q07973); conditions: Schuster et al., J. Cell. Biochem. 88:372-380 (2003); cited from earlier work
T1 sequence (Q07973 36-514): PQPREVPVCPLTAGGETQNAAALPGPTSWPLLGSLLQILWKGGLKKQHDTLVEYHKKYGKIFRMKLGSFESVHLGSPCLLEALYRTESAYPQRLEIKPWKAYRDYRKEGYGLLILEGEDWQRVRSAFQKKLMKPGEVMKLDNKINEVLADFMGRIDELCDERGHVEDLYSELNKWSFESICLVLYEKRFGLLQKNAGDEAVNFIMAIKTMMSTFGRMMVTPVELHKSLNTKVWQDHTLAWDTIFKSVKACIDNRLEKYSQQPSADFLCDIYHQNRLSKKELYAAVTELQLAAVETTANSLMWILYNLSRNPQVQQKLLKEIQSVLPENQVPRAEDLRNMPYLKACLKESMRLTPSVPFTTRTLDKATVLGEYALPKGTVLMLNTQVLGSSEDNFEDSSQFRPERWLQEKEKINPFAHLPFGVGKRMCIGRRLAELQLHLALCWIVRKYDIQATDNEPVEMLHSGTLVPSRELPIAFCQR

[3] = system: OVCAR-3 ovarian cancer cells; test: Cell growth, methylene blue uptake (Experiment VI); format: cell-based, human; conditions: 200 nM VID400 with calcitriol
Method: (§1) Culture conditions were the same as for Experiment I. Cell growth was measured using uptake of methylene blue (0.5% in 50% ethanol), followed by air drying and release of the dye in 1% sodium N-lauroyl sarcosine in PBS.

[4] = system: CWR22Rv-1 prostate cancer cells; test: Cell growth, methylene blue uptake (Experiment VI); format: cell-based; conditions: VID400+calcitriol
Method: as §1

[5] = system: DU145 prostate cancer cells; test: Cell growth, methylene blue uptake (Experiment VI); format: cell-based; conditions: VID400+calcitriol
Method: as §1

[6] = system: PC3 prostate cancer cells; test: Cell growth, methylene blue uptake (Experiment VI); format: cell-based; conditions: VID400+calcitriol
Method: as §1

Compound | induction of 24OHase mRNA expression ([1]; 6 hr treatment) | induction of 24OHase mRNA expression ([1]; 24 hr treatment) | effect on cell growth [2] | inhibition of 24-hydroxylase (24-hydroxylase) | effect on cell growth [3] | effect on cell growth [4] | effect on cell growth [5] | effect on cell growth [6]
C=C1CC[C@H](O)C/C1=C/C=C1\CCC[C@]2(C)[C@@H]([C@H](C)CCCC(C)(C)O)CC[C@@H]12 [25(OH)D3, monohydroxyvitamin D3] | 3 fold | 0.5 fold |  |  |  |  |  | 
O=C(NC[C@@H](c1ccccc1)n1ccnc1)c1ccc(-c2ccc(Cl)cc2)cc1 [VID400, 2-(R)-4′-Chlorobiphenyl-4-carboxylic acid (2-imidazol-1-yl-2-phenyl-ethyl)-amide] |  |  | varied from slight stimulation to growth inhibition | potent inhibitors of 24-hydroxylase | produced a further inhibition which was synergistic with calcitriol | synergistic inhibition of growth | synergistic inhibition of growth | synergistic inhibition of growth

Reference: US20060074109A1, “Use of inhibitors of 24-hydroxylase in the treatment of cancer” (Sapphire Therapeutics, Inc., priority 2004, published 2006)
